According to paper PMC5104426, “Screening a Phage Display Library for Two Novel OmpU-Binding Peptides with Adhesion Antagonistic Activity against Vibrio mimicus” (PLoS ONE, 2016):

Legend:
[1] = tested on: V. mimicus 04–14 isolate adhesion to EPC cells; experiment: Peptide adhesion inhibition test: V. mimicus adhesion to EPC cells; type: cell-based, Vibrio mimicus; conditions: 500 μg/mL peptide mixed with equal volume of V. mimicus 04–14 (2 × 10^7 CFU/mL), 1 h 28°C, then 1 h on EPC cells, crystal violet, 30 cells counted, mean ± SD, triplicate
Experimental: When EPC cells grown in 24-well plate containing coverslips formed a confluent monolayer, the medium was changed to RPMI-1640 medium without serum and antibiotics for 2 h. Subsequently, 500 μg/mL of each OmpU-binding peptide or unrelated control peptide solution were respectively mixed with an equal volume of V. mimicus isolate 04–14 suspension (2 × 10^7 CFU/mL) and incubated for 1 h at 28°C. The mixture was added to each well, and then the plates were incubated for 1 h at 28°C. After 3 times washes, EPC cells were fixed with cooled methanol for 10 min, stained with crystal violet and examined under a light microscope at a magnification of ×1,000. Thirty cells were randomly selected to count the number of adhering bacterial per slide. Each experiment was performed in triplicate, with each sample being repeated in 3 cell wells.

[2] = tested on: rOmpU fusion protein adhesion to EPC cells; experiment: Fluorescence-based adhesion assay: rOmpU protein adhesion to EPC cells; type: cell-based, Vibrio mimicus; conditions: 500 μg/mL peptide mixed with equal volume of 500 μg/mL rOmpU, 1 h 28°C, then 1 h on fixed EPC cells; anti-OmpU/FITC immunofluorescence; triplicate
Experimental: Synthetic OmpU-binding peptides were measure for their ability to antagonize OmpU protein adhesion to EPC cells by fluorescence-based adhesion assay. Briefly, EPC cells (1 × 10^6 cells/mL) were seeded in 24-well cell plate containing coverslip (Corning, NY, USA) and cultured to 80% confluence. The cells were gently washed 3 times with PBS and fixed with 4% paraformaldehyde at room temperature for 15 min. After 3 washes with PBS, cells were permeabilized with 0.5% Triton X-100 (500 μL/well) for 15 min. The cells were then washed 3 times with PBS and blocked with 2% BSA for 30 min. Subsequently, 500 μg/mL of each OmpU-binding peptide or irrelevant control peptide (used as negative control) solution were respectively mixed with an equal volume of 500 μg/mL rOmpU fusion protein, and the mixture was incubated for 1 h at 28°C and added to each well. The plates were incubated for 1 h at 28°C. After 3 washes, purified rabbit anti-OmpU antibody (prepared in our previous studies) at a dilution of 1:200 in PBS was added to each well and incubated for 1 h at 28°C, followed by 3 washes in PBS. A 1:100 dilution of FITC (fluorescein isothiocyanate)-labeled goat anti-rabbit IgG (Jackson ImmunoResearch Laboratories, Inc., USA) was added to each well and incubated in the dark for 1 h. After 3 washes in PBS, 4,6-Diamidino-2-phenylindole dihydrochloride (DAPI; Ziyi Reagent Co., Shanghai, China) was used to stain the nucleus, and the coverslips were observed under a fluorescence microscope. Each experiment was performed in triplicate, each sample being tested in three wells.

Sequence: TGYICDEMFCKL [P3]
- average number of adhesion around each cell [1]: 20.2 ± 0.5
- green fluorescence on the surface of EPC cells (surface-retained rOmpU) [2]: Obvious green fluorescence
